Measurements as given in patent US12590111B2, “Flavonoid derivative for treating dental caries” (Mühlbauer Technology GmbH, priority 2019, dated 2026).

Legend:
[1] = target: T1, glucosyltransferase C of S. mutans (Streptococcus mutans serotype c, UniProt P13470); assay: Inhibition of glucosyltransferase GtfC activity (fructose release, K-FRUGL kit); assay type: biochemical; conditions: for inhibition of glucosyltransferase C activity: 30 mM sucrose, pH 6.0, 1 h, 37° C.; for remaining enzyme activity: normalized to solvent control, FIG. 2
T1 construct: purchased nzytech
Procedure: (§1) For this purpose, the test substance was resuspended in a DMSO/ethanol mixture (20/80%) and then diluted in the reaction mixture to the concentration to be tested (final concentration DMSO/ethanol 2/8%). The glucosyltransferase GtfC (0.3 μg, nzytech) was incubated in 100 mM potassium phosphate buffer, pH 6.0 with 30 mM sucrose for one hour at 37° C. in the presence of the test substances. As a positive control, the enzyme activity was measured in the presence of DMSO/ethanol (2/8%). […] For this purpose, the D-fructose and D-glucose assay kit from Megazyme (K-FRUGL) was used.
D-glucose and D-fructose are phosphorylated in the presence of adenosine-5-triphosphate (ATP) to glucose-6-phosphate (G-6-P) and fructose-6-phosphate (F-6-P) by the enzyme hexokinase (HK), producing adenosine 5′-diphosphate (ADP) (1), (2).
In the presence of the enzyme glucose-6-phosphate dehydrogenase (G6P-DH), G-6-P is oxidized to gluconate-6-phosphate by nicotinamide adenine dinucleotide (NADP^+). This produces reduced nicotinamide adenine dinucleotide phosphate (NADPH) (3).
The amount of NADPH formed in this reaction corresponds stoichiometrically to the amount of D-glucose. The absorption of NADPH is measured at 340 nm.
After completion of the reaction (3), F-6-P is converted to G-6-P by phosphoglucose isomerase (PGI) (4).
The G-6-P formed reacts in turn with NADP^+ to form gluconate-6-phosphate and NADPH, which leads to a further increase in absorption and correlates stoichiometrically with the amount of D-fructose.
(§2) 9 independent reaction batches were measured in triplicate and the enzyme activity was normalized to the solvent control.

[2] = Solubility in the GtfC reaction mixture; assay type: physicochemical; conditions: 6 mM; final DMSO/ethanol 2/8%
Procedure: as §1, §2

[3] = target: T2, GtfC enzyme activity of S. mutans (Streptococcus mutans serotype c, UniProt P13470); assay: GtfC activity with flavonoid derivative bound to hydroxyapatite; assay type: biochemical; conditions: bound to HAP as in Example 4; activity in supernatant; FIG. 4
T2 construct: purchased nzytech
Procedure: ApiBisPhos UD was bound to HAP as described in Example 4 and then incubated with GtfC as described in Example 3. The HAP was then centrifuged off and the GtfC activity in the supernatant was then determined as described in Example 3. A similar procedure was followed with the further flavonoid derivative “ApiBisPhos EG” according to the invention. […] In other words, the further example of a flavonoid derivative according to the invention (“ApiBisPhos EG”) confirms the successful functioning of the present invention as the basis for achieving the advantage according to the invention based on the adhesion of the flavonoid derivative according to the invention to the tooth surface comprising hydroxyapatite, so that the flavonoid derivative can prevent or to a great extent inhibit the formation of biofilm causing dental diseases on the tooth surfaces treated with the flavonoid derivative in the long term.

S. mutans biofilm = S. mutans biofilm formation on saliva-coated hydroxyapatite disks (crystal violet); assay type: cell-based; conditions: HAP disks pretreated with 60 μl 10 mM, 60 min; 24 h culture at 37° C.; relative to solvent control
Procedure: In this example, it was investigated whether “ApibisPhos UD” has a significant influence on S. mutans-mediated biofilm formation using hydroxyapatite discs coated with saliva under conditions simulating the oral cavity.
For this purpose, sterile hydroxyapatite disks (Clarkson Chromatography Products Inc., Ø5 mm×2 mm) were coated with saliva (Lee Biosolutions, human pooled donors) as substrate for 60 minutes and then incubated with ApiBisPhos UD (60 μl; 10 mM in DMSO/ethanol mixture, 20/80%) for 60 minutes. After washing twice with DPBS, these pretreated hydroxyapatite disks were coated with S. mutans preculture (1.5×10^8 bacteria per ml in Balmelli broth) and cultured aerobically at 37° C. for 24 hours. The grown biofilm was fixed with 100% ethanol (30 min, 25° C.), stained with 0.06% (w/v) crystal violet (60 min, 25° C.) and the dye eluted with 30% (v/v) acetic acid quantified by measuring the absorbance at 570 nm. The measured values were set in relation to the solvent control (DMSO/ethanol mixture; 20/80%), i.e. without the use of ApibisPhos UD.

[4] = pH 6, read-out: inhibition of glucosyltransferase C activity

T1 sequence (P13470 35-1455): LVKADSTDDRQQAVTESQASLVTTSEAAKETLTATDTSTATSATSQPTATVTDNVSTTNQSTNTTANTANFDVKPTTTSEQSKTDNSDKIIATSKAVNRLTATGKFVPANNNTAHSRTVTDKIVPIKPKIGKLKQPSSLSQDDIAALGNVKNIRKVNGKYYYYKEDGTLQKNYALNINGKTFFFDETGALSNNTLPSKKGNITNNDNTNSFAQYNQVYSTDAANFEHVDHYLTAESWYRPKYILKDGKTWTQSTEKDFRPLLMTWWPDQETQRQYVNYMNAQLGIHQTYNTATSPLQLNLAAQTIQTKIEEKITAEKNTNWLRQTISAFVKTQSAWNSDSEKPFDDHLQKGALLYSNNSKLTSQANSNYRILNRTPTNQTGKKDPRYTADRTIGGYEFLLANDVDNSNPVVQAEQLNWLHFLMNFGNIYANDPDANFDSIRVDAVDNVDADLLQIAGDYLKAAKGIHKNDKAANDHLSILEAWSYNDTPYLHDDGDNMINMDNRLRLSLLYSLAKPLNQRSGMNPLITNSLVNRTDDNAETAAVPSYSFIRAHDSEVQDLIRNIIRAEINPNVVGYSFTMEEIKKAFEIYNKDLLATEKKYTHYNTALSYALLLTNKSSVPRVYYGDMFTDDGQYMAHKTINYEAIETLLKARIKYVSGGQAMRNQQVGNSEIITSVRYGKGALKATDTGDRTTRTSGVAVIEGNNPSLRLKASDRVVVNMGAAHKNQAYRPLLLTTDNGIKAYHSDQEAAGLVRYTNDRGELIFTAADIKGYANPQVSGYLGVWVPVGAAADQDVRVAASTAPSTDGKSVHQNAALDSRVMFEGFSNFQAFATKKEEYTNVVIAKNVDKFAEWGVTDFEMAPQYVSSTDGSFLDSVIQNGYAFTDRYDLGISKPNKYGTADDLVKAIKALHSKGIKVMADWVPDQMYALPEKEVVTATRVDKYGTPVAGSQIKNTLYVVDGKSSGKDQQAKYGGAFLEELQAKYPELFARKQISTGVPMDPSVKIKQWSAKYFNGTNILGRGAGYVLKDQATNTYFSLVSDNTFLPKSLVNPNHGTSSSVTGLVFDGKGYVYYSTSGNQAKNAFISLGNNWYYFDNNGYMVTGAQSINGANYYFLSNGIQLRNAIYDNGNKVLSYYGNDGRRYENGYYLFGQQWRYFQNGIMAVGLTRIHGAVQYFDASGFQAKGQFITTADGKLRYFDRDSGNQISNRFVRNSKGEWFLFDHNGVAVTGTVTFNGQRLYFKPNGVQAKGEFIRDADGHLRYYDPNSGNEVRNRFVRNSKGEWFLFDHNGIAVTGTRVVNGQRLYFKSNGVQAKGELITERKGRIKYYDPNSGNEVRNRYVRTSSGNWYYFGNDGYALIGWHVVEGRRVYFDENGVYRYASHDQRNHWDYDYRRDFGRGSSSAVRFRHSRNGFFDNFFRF
T2 sequence (P13470 35-1455): as above

Compound	inhibition at 1000 µM [1, 4]	inhibition at 3000 µM [1, 4]	solubility [2]	inhibition of glucosyltransferase C activity ([1]; 1 mM)	remaining enzyme activity ([1]; 1 mM)	inhibition of glucosyltransferase C activity ([1]; 3 mM)	remaining enzyme activity ([1]; 3 mM)	inhibition of glucosyltransferase C activity ([1]; 6 mM)	inhibition of GtfC enzyme activity by substance bound to hydroxyapatite [3]	inhibition of biofilm formation on HAP surfaces (S. mutans biofilm)
O=c1cc(-c2ccc(O)cc2)oc2cc(O)cc(O)c12 [apigenin, reference compound]	38 ± 10%	53 ± 6%	insufficient solubility							
Mixture of 4′-(11,11-bisphosphonoundecanoxy)-7,5-dihydroxyflavone and 7-(11,11-bisphosphonoundecanoxy)-4′, 5-dihydroxyflavone [ApiBisPhos UD]				72±9%	less than 30%	90±4%	about 10%	99±2%	inhibit the GtfC enzyme activity of S. mutans to a considerable degree	26±9%
Mixture of 4′-(12,12-bisphosphono-3,6,9-trioxadodecanoxy)-7,5-dihydroxyflavone and 7-(12,12-bisphosphono-3,6,9-trioxadodecanoxy)-4′,5-dihydroxyflavone [ApiBisPhos EG]									inhibit the GtfC enzyme activity of S. mutans to a considerable degree	
